Test results taken from patent US20230339836A1, “METHOD FOR PRODUCING REDUCED COENZYME Q10 FORM II CRYSTALS” (KANEKA CORPORATION, priority 2020, published 2023).

Columns and labels:
[1] = Solubility (saturated concentration) of reduced coenzyme Q10 crystals in hydrous ethanol, HPLC of filtered liquid phase; type: physicochemical
Protocol: The dissolved concentration of reduced coenzyme Q10 in a liquid phase was measured by analyze a liquid phase sample by high performance liquid chromatography under the following conditions.
• Column: SYMMETRY C18 (manufactured by Waters); 250 mm (length), 4.6 mm (inner diameter) • Mobile phase: C2H5OH:CH3OH=4:3 (v:v) • Detection wavelength: 210 nm • Flow rate: 1 ml/min • Retention time of reduced coenzyme Q10: 9.1 min.
The solubility (saturated concentration) (% by weight) of each of a reduced coenzyme Q10 Form I-type crystal (Form I-type crystal) and a reduced coenzyme Q10 Form II-type crystal (Form II-type crystal) in hydrous ethanol with an ethanol concentration per total volume of 99.5% (v/v), 95% (v/v), and 90% (v/v) at temperatures of 298.15K (25° C.), 303.15K (30° C.), 308.15K (35° C.), and 313.15K (40° C.) was obtained.
The solubility was measured by the following procedures.
To approximately 30 g of each hydrous ethanol, approximately 10 g of a Form I-type crystal or a Form II-type crystal was added, the mixture was stirred under a nitrogen atmosphere and maintained for approximately 1 hour at temperatures of 25° C., 30° C., 35° C., and 40° C. Sampling was performed at each temperature and each sample was filtered quickly to obtain a liquid phase sample. Each sample was analyzed under the above HPLC conditions and the solubility was calculated.

[2] = Saturated concentration calculated from Expressions 3 to 8 for 99.5% (v/v) ethanol; type: physicochemical; conditions: calculated by Expressions 7 and 8, natural logarithm
Text: Further, the ethanol concentration of 99.5% (v/v) was assigned to Z of Expressions 3, 4, 5, and 6 to obtain the values of the constants AI, BI, AII, and BII. Using these constants, the Log CI of the saturated concentration CI (% by weight) of the Form I-type crystal and the Log CII of the saturated concentration CII (% by weight) of the Form II-type crystal were obtained at each temperature (converting the unit to Kelvin) shown in Table 5 according to Expressions 7 and 8 above.

[3] = compared with Form I-type crystal; Patent Literature 4; cited from earlier work
[4] = compared with oxidized coenzyme Q10; cited from earlier work
[5] = 90% (v/v) ethanol, 298.15 K (25° C.)
[6] = 90% (v/v) ethanol, 303.15 K (30° C.)
[7] = 90% (v/v) ethanol, 308.15 K (35° C.)
[8] = 90% (v/v) ethanol, 313.15 K (40° C.)
[9] = 95% (v/v) ethanol, 298.15 K (25° C.)
[10] = 95% (v/v) ethanol, 303.15 K (30° C.)
[11] = 95% (v/v) ethanol, 308.15 K (35° C.)
[12] = 95% (v/v) ethanol, 313.15 K (40° C.)
[13] = 99.5% (v/v) ethanol, 298.15 K (25° C.)
[14] = 99.5% (v/v) ethanol, 303.15 K (30° C.)
[15] = 99.5% (v/v) ethanol, 308.15 K (35° C.)
[16] = 99.5% (v/v) ethanol, 313.15 K (40° C.)

Structure (SMILES): COc1c(O)c(C)c(C/C=C(\C)CC/C=C(\C)CC/C=C(\C)CC/C=C(\C)CC/C=C(\C)CC/C=C(\C)CC/C=C(\C)CC/C=C(\C)CC/C=C(\C)CCC=C(C)C)c(O)c1OC [Form I, reduced coenzyme Q10]
- Solubility [1, 5]: 0.13 % by weight
- Solubility [1, 6]: 0.18 % by weight
- Solubility [1, 7]: 0.29 % by weight
- Solubility [1, 8]: 0.88 % by weight
- Solubility [1, 9]: 0.65 % by weight
- Solubility [1, 10]: 1.01 % by weight
- Solubility [1, 11]: 2.33 % by weight
- Solubility [1, 12]: 8.98 % by weight
- Solubility [1, 13]: 2.01 % by weight
- Solubility [1, 14]: 4.53 % by weight
- Solubility [1, 15]: 12.6 % by weight
- Solubility [1, 16]: 46.3 % by weight
- Solubility compared between crystal forms ([1]; hydrous ethanol with any concentration (99.5, 95, 90% v/v)): higher than that of the Form II-type crystal
- Log of saturated concentration (% by weight) ([2]; 10° C.): −2.686
- Log of saturated concentration (% by weight) ([2]; 20° C.): −0.584
- Log of saturated concentration (% by weight) ([2]; 25° C.): 0.467
- Log of saturated concentration (% by weight) ([2]; 30° C.): 1.517
- Log of saturated concentration (% by weight) ([2]; 35° C.): 2.568

Structure (SMILES): COc1c(O)c(C)c(C/C=C(\C)CC/C=C(\C)CC/C=C(\C)CC/C=C(\C)CC/C=C(\C)CC/C=C(\C)CC/C=C(\C)CC/C=C(\C)CC/C=C(\C)CCC=C(C)C)c(O)c1OC [Form II, reduced coenzyme Q10]
- Solubility [1, 5]: 0.10 % by weight
- Solubility [1, 6]: 0.13 % by weight
- Solubility [1, 7]: 0.23 % by weight
- Solubility [1, 8]: 0.41 % by weight
- Solubility [1, 9]: 0.37 % by weight
- Solubility [1, 10]: 0.52 % by weight
- Solubility [1, 11]: 0.86 % by weight
- Solubility [1, 12]: 2.81 % by weight
- Solubility [1, 13]: 1.22 % by weight
- Solubility [1, 14]: 2.32 % by weight
- Solubility [1, 15]: 5.51 % by weight
- Solubility [1, 16]: 17.9 % by weight
- Log of saturated concentration (% by weight) ([2]; 10° C.): −3.858
- Log of saturated concentration (% by weight) ([2]; 20° C.): −2.145
- Log of saturated concentration (% by weight) ([2]; 25° C.): −1.288
- Log of saturated concentration (% by weight) ([2]; 30° C.): −0.432
- Log of saturated concentration (% by weight) ([2]; 35° C.): 0.425
- Stability of crystal form [3]: much more stable than the conventional reduced coenzyme Q10

Structure (SMILES): COc1c(O)c(C)c(C/C=C(\C)CC/C=C(\C)CC/C=C(\C)CC/C=C(\C)CC/C=C(\C)CC/C=C(\C)CC/C=C(\C)CC/C=C(\C)CC/C=C(\C)CCC=C(C)C)c(O)c1OC [reduced coenzyme Q10]
- Oral absorbability [4]: higher oral absorbability than that of oxidized coenzyme Q10
